Measured values from publication doi:10.1101/2021.08.24.457553v1 (biorxiv, 2021).

Key:
[1] = molecular target: T1, PfPKG (Plasmodium falciparum, UniProt Q8I719); assay: in vitro PfPKG kinase inhibition assay; assay type: biochemical; settings: […] compound
[2] = liver microsomes
[3] = molecular target: 2D6 (Homo sapiens, UniProt P10635); assay: biochemical
[4] = in vitro; design: species or system primary non-human primate hepatocytes; settings: monkey, primary hepatocytes
[5] = molecular target: T1, PfPKG; assay: in vitro PfPKG kinase inhibition assay; assay type: biochemical
[6] = test system: P. berghei; assay: microbe, parasite or virus in culture; settings: Plasmodium berghei, HepG2, read-out: % inhibition
[7] = liver microsomes; remark: listed apart in the source
[8] = molecular target: 2C9 (Homo sapiens, UniProt P11712); assay: biochemical
Sequence of 2C9 (P11712 whole entry): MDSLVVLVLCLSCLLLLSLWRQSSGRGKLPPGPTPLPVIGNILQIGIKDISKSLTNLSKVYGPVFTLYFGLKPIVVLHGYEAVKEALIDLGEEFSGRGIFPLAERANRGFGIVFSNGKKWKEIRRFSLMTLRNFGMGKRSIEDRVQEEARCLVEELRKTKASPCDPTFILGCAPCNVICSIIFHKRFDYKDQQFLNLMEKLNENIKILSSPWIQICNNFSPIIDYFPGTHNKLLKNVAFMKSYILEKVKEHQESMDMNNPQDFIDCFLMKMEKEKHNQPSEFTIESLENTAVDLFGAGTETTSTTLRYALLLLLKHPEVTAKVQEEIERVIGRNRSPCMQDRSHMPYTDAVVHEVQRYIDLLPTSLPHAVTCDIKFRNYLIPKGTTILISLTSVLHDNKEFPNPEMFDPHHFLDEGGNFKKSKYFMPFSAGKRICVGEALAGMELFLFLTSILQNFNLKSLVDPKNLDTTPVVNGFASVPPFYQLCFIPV

[9] = in vitro; design: species or system primary non-human primate hepatocytes; settings: monkey, primary hepatocytes; remark: listed apart in the source
[10] = molecular target: CYP3A4 (Homo sapiens, UniProt P08684); assay: in vitro CYP3A4 inhibition; assay type: cell-based
Sequence of CYP3A4 (P08684 2-503): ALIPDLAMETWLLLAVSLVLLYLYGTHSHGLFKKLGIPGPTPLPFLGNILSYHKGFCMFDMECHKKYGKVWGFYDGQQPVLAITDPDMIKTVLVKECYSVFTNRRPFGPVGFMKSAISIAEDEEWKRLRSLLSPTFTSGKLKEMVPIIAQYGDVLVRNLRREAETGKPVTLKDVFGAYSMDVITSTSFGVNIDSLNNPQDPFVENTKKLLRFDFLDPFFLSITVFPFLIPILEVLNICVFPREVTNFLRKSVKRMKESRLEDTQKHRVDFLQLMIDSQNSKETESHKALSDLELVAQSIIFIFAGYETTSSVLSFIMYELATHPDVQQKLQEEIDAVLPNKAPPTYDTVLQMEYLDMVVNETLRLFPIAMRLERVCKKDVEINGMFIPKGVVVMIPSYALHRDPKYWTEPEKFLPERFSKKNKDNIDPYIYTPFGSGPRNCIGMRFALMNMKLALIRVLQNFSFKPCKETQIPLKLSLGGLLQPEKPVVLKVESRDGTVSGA

[11] = molecular target: hERG (Homo sapiens, UniProt Q12809); settings: HEK293, 10 µM
Sequence of hERG (Q12809 whole entry): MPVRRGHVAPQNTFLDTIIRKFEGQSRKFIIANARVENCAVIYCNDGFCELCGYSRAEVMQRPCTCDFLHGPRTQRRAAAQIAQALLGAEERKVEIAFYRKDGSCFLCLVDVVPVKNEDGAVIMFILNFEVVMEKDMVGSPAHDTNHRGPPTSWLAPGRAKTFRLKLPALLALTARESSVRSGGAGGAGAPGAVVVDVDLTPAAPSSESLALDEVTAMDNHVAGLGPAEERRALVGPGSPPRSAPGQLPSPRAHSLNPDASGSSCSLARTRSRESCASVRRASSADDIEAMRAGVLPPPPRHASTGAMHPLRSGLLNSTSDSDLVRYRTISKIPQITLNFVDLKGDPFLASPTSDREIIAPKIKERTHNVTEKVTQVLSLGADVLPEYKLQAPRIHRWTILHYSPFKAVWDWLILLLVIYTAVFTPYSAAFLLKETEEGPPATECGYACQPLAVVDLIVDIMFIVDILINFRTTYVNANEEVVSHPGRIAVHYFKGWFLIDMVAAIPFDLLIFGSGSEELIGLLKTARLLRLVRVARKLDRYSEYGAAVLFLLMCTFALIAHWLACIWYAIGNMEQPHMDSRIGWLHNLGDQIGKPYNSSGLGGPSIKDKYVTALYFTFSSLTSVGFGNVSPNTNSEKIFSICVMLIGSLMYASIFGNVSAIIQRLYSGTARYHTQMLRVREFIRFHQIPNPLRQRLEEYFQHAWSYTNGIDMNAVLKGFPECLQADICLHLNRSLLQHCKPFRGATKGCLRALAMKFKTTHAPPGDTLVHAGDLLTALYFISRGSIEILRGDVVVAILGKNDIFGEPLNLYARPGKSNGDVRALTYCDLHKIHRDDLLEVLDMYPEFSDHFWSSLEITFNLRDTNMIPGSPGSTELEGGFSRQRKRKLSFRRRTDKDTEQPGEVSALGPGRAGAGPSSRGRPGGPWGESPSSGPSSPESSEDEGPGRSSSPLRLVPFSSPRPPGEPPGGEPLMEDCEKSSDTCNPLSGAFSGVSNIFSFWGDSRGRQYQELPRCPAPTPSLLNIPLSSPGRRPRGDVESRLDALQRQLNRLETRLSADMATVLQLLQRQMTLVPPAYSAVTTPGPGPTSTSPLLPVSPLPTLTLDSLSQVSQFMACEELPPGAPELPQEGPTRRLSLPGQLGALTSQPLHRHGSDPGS

[12] = molecular target: T1, PfPKG; assay: in vitro PfPKG kinase inhibition assay; assay type: biochemical; settings: […] compound; remark: listed apart in the source

T1 sequence (Q8I719 whole entry): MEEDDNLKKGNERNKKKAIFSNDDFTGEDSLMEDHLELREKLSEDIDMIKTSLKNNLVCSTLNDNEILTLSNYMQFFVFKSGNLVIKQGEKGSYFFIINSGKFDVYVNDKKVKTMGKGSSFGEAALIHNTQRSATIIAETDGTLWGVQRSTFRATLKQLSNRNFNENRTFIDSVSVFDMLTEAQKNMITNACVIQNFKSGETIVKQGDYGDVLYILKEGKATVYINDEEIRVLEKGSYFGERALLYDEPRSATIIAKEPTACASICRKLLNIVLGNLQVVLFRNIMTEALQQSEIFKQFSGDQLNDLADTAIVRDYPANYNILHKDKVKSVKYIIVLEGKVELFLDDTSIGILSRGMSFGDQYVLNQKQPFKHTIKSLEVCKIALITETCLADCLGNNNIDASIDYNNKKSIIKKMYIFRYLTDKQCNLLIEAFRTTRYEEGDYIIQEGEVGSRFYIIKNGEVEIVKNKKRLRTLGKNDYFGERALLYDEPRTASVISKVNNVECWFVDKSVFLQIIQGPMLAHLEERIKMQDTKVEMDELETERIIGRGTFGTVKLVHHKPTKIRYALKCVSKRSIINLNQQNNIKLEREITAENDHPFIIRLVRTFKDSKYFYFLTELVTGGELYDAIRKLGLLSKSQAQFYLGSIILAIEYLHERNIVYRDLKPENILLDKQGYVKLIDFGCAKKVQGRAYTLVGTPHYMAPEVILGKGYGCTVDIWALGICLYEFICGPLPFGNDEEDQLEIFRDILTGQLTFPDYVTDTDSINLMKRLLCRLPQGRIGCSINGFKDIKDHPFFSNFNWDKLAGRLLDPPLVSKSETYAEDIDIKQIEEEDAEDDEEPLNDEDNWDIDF
Sequence of 2D6 (P10635 whole entry): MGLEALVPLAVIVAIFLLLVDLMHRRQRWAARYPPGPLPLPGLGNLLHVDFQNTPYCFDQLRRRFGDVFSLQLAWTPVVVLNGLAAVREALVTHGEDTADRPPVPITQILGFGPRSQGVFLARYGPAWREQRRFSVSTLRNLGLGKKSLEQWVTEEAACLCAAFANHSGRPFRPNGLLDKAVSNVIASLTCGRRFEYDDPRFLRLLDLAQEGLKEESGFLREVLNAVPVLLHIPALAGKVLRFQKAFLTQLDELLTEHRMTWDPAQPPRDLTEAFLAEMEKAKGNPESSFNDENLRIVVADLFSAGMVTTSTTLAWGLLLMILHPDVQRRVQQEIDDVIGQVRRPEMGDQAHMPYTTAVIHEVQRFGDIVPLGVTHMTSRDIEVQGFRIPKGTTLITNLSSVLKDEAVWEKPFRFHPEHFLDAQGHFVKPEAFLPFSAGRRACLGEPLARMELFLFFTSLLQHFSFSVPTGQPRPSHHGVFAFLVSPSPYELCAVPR

Cc1cn(-c2ccnc(NC3CCCN(C(=O)c4nccs4)C3)n2)c(-c2ccccc2)n1 (racemic) [10d]
% inh @ 1 uM [1]: 4%

Cc1cn(-c2ccnc(N[C@@H]3CCN(C(=O)c4nccs4)C3)n2)c(-c2ccccc2)n1 [10a]
MLM t1/2 [2]: < 2 min
IC50 [3]: > 10000 nM
CC50 at 96 h [4]: > 20000 nM
IC50 [5]: 320 nM
inhibition at 2 µM [6]: 78 ± 20%
inhibition at 10 µM [6]: 89 ± 7%
HLM t1/2 [7]: < 2 min
IC50 [8]: > 10000 nM
CC50 at 96 h [9]: > 20000 nM

Cc1cn(-c2ccnc(N[C@@H]3CCN(C(=O)c4ccn(C)n4)C3)n2)c(-c2ccccc2)n1 [10b]
IC50 [5]: 1000 nM

Cc1cn(-c2ccnc(N[C@H]3CCN(C(=O)c4nccs4)C3)n2)c(-c2ccccc2)n1 [10c]
% inh @ 1 uM [1]: 4%

O=C(c1nccs1)N1CC[C@@H](Nc2nccc(-n3cc(C4CC4)nc3-c3ccccc3)n2)C1 [14a]
MLM t1/2 [2]: < 2 min
IC50 [10]: < 300 nM
hERG % inh. @ 10 uM [11]: 1%
IC50 [5]: 100 nM
HLM t1/2 [7]: 4.8 min

O=C(c1nccs1)N1CC[C@@H](Nc2nccc(-n3cc(C4CC4)nc3-c3cccc(Cl)c3)n2)C1 [14b]
MLM t1/2 [2]: <2 min
IC50 [10]: < 300 nM
hERG % inh. @ 10 uM [11]: 9%
CC50 at 96 h [4]: > 20000 nM
IC50 [5]: 60 nM
inhibition at 2 µM [6]: 94 ± 3%
inhibition at 10 µM [6]: 93 ± 3%
HLM t1/2 [7]: 3.7 min
CC50 at 96 h [9]: > 20000 nM

COc1cccc(-c2nc(C)cn2-c2ccnc(N[C@@H]3CCN(C(=O)c4nccs4)C3)n2)c1 [18a]
IC50 [5]: 86 nM

Cc1cn(-c2ccnc(N[C@@H]3CCN(C(=O)c4nccs4)C3)n2)c(-c2ccccc2Cl)n1 [18b]
% inhib @ 1 uM [12]: 47%

Cc1cn(-c2ccnc(N[C@@H]3CCN(C(=O)c4nccs4)C3)n2)c(-c2ccc(Cl)cc2)n1 [18c]
IC50 [5]: 1160 nM

Cc1cn(-c2ccnc(N[C@@H]3CCN(C(=O)c4nccs4)C3)n2)c(-c2cccc(OC(F)(F)F)c2)n1 [18d]
IC50 [5]: 150 nM
